Series [1] addresses T1, calmodulin (Homo sapiens, UniProt P0DP23). Nature of the series: Native gel autoradiography of 2-[125I]-melatonin with calmodulin. The series is classed as binding. To be noted: 1 μCi 2-[125I]-melatonin, 15% polyacrylamide gel, 0.5 mM CaCl2, no SDS. The procedure: In order to assess this, 1 μl calmodulin (1 mg/ml) was incubated with 1 μCi 2-[^125 I]-melatonin in 9 μl TBSC and run on a 15% polyacrylamide gel. The gel was as the running gel of Laemmli (Nature 1970 220 680-685), but with 0.5 mM CaCl2 and no SDS in both gel and buffer.

Series [2] concerns the target T1, calmodulin. Kind of series: Native gel electrophoresis of fluoresceinated TAG peptides with calmodulin. The conditions noted are these: excess calmodulin, TBS 1 mM CaCl2, 15% native gel. The format is binding. From the text:
FIGS. 9A and 9B: Fluorescent and Coomassie blue detection of fluorescent peptide/calmodulin complexes. Native gel electrophoresis of calmodulin and fluoresceinated TAG1 (Track 1), calmodulin and fluoresceinated TAG2 (Track 2), calmodulin and fluoresceinated TAG3 (Track 3), and calmodulin and fluoresceinated TAG4 (Track 4). The gel was first imaged on a UV transilluminator and photographed (FIG. 9A) and then stained with Coomassie blue and photographed (FIG. 9B).
For peptide fluoresceination, 1 mg of each peptide was dissolved in 1 ml of 100 mM NaHCO3, pH 8.9. One volume of peptide was mixed with one volume of water and 2 volumes of 2 mM iodoacetamidofluorescein (Molecular Probes Inc.) in dimethylformamide. The reaction was allowed to proceed for 15 minutes then quenched by adding dithiothreitol to 10 mM final concentration. The fluoresceinated peptides were separated from unreacted fluorescein using a Millipore MEM-SEP cartridge column (TBS=loading and wash buffer; TBS+0.5 M NaCl=elution buffer).
A 20 μl reaction was set up containing ca. 0.4 μg of fluoresceinated peptide and 18 μg of calmodulin (Sigma) in TBS containing 1 mM CaCl2 (TBS is 50 mM Tris-HCl, pH 7.4, 100 mM NaCl in water).

The target in series [3] is T1, calmodulin. To be noted: 600 nM calmodulin, 50 nM fluorescein-labeled TAG3, 7 μM unlabelled peptide, on ice, up to 4 hrs.
Method: 600 nM calmodulin was pre-mixed in TBSC and 10% sucrose with 50 nM fluorescein-labeled TAG3 peptide. Aliquots were incubated on ice with a large excess (7 μM) unlabeled peptide for 0, 0.5, 1, 2, and 4 hrs, and analysed on a native 15% polyacrylamide gel (as in Laemmli, 1970 supra except with CaCl2 to 1 MM) in a Hoefer Mighty Small apparatus, and imaged with a cooled CCD-camera based fluorescent gel imaging system developed in collaboration with Confocal Technologies (Liverpool, UK) and Digital Pixel (Brighton, UK).
600 nM calmodulin was pre-mixed in TBSC and 10% sucrose with 50 nM fluorescein-labeled TAG3 peptide. Aliquots were incubated on ice with a large excess (7 μM) unlabelled peptide for 0, 0.5, 1, 2, and 4 hrs, and analysed on a native 15% polyacrylamide gel (as in Carr & Scott, 1992 supra) except with CaCl2 to 1 mM) in a Hoefer Mighty Small apparatus, and imaged with a cooled CCD-camera based fluorescent gel imaging system developed in collaboration with Confocal Technologies (Liverpool, UK) and Digital Pixel (Brighton, UK).
In series [4] the target is T1, calmodulin. The conditions noted are these: cited from earlier work.
The subject of series [5] is scFv(HyHEL-10)-CAL. The series is classed as binding. The procedure: FIG. 8A: Binding of scFv-CAL and MBP-TAG1 detected by surface plasmon resonance (Pharmacia Biacore). 2500 resonance units (RUs) of turkey egg lysozyme (TEL) (Sigma) were immobilized on a microsensor chip of a BIAcore machine (Pharmacia). A solution of […] (5 μg/ml) in TBSC was injected onto the chip (flow rate 5 μl/min), followed by injections of MBP-TAG1 (5 μg/ml), then 20 mM EGTA (to dissociate the complex) and then MBP (New England Biolabs 5 μg/ml).
Thus HEL was immobilised on the microsensor chip, and the chip saturated with scFv(HyHEL-10)-CAL.
(§1) 2500 resonance units (RUs) of turkey egg lysozyme (TEL) (Sigma) were immobilised on a microsensor chip of a BIAcore machine (Pharmacia). A solution of […] (5 μg/ml) in TBSC was injected onto the chip (flow rate 5 μl/min), followed by injections of MBP-TAG1 (5 μg/ml), then 20 mM EGTA (to dissociate the complex) and then MBP (New England Biolabs 5 μg/ml). […] Conditions were as in Example 7 and FIG. 5, except the gel was stained with Coomassie. Lanes: 1, MBP-TAG1 (0.3 mg/ml); 2, scFv (HyHEL10)-CAL (0.08 mg/ml); 3, scFv (HyHEL-10) (0.08 mg/ml)+MBP-TAG1 (0.3 mg/ml).

For series [6], the system named is scFv(HyHEL-10)-CAL. Nature of the series: Native Phast gel analysis of scFv(HyHEL-10)-CAL and MBP-TAG1 interaction. The format is binding. The procedure:
FIG. 8B: Homogeneous 20 Native Phast Gel (Pharmacia) for the analysis of scFv(HyHEL-10)-CAL and MBP-TAG1 interaction. Conditions as in FIG. 5, except the gel was stained with Coomassie. Lanes: 1, MBP-TAG1 (0.3 mg/ml); 2, scFv (HyHEL-10)-CAL (0.08 mg/ml); 3, scFv (HyHEL-10) (0.08 mg/ml)+MBP-TAG1 (0.3 mg/ml).
as §1

The test system of series [7] is fluoresceinated TAG-3 peptide. Nature of the series: Band shift assay of alternative fusion partners with fluoresceinated TAG-3 peptide. The series is classed as binding. The conditions noted are these: 10 μM fluoresceinated TAG-3, TBSC, High-Density Phast Gel, native.
Method: 1 μl of purified scFv (D1.3)-CAL (Example 5), scFv(D1.3)-CAL(N-domain), scFv(D1.3)-CAL(C-domain), calmodulin or troponin C were incubated with 10 μM fluoresceinated TAG-3 peptide and 8 μl TBSC. The samples were run on a High-Density Phast Gel (Pharmacia) using native buffer strips, and gel imaged.
The conditions of series [8]: in vivo; cited from earlier work.
Where [9] appears, read: Table 1, affinities of calmodulin-binding peptides.

The source of these data is patent publication US6117976A, “Manufacture and use of polypeptides tagged using binding molecules” (Medical Research Council, priority 1993, dated 2000).

Entries after “also recorded” stand apart in the source; their conditions may differ. Like-named read-outs stand apart in the source and are kept apart here. No end group written: not given here.

On to `COc1ccc2[nH]c([125I])c(CCNC(C)=O)c2c1` [2-[^125 I]-melatonin], for which the “detection of calmodulin-melatonin complex on gel (radioactive band)” value in series [1] is listed as “no radioactive band was detected”. Consider `COc1ccc2[nH]cc(CCNC(C)=O)c2c1` [Melatonin, melatonin], for which the “detection of calmodulin-melatonin complex on gel (radioactive band)” value in series [1] is reported as “no complex is detected on band shift assays”. In the case of C-EIKRAAA-INLKALAALAKKIL-IK-OH [TAG 4], the “peptide-calmodulin complex formation (comigration of fluorescent and coomassie bands)” value (from here on “peptide-calmodulin complex formation”) in series [2] is recorded as “stable complex with calmodulin”.

Consider “C-EIKRAAA-INLKALAALAKKIL-IKRKRQQ-NH2 [TAG 3]”, for which the “displacement of fluorescent peptide from calmodulin by unlabelled peptide” value in series [3] is reported as “not significantly displaced from the calmodulin even after four hours competition”. Besides, the “peptide-calmodulin complex formation” value in series [2] is “the upper of these that has bound peptide”. As for “C-EIKRAAA-INLKALAALAKKIL-NH2 (CEIKRAAAINLKALAALAKKIL-NH2) [TAG 1]”, the “peptide-calmodulin complex formation” value in series [2] is “stable complex with calmodulin”. For the compound C-EIKRAAA-INLKALAALAKKIL-OH [TAG 2], the “peptide-calmodulin complex formation” value in series [2] is “stable complex with calmodulin”. In the case of “IKPAKRMKFKTVCYLLVQLMHCRKMFKA-NH2 [AC-28]”, the Kd (in general, the constant that tells how readily two partners part at equilibrium) in series [4] (setting [9]) is 2 nM.

Regarding INLKALAALAKKIL-NH2 [Mastoparan], the Kd was 0.3 nM in series [4] (setting [9]); 0.3 nM in series [4] (binding to calmodulin, Malencik and Anderson, 1983). For the same compound, the Ka in series [4] (association constant for calmodulin) was 3.3e+09 M⁻¹. For “KRRAIGFKKLAEAVKFSAKLMGQAMAKRVK-NH2 [NO-30]”, in series [4] (setting [9]), the Kd is 2 nM. Regarding “MBP-TAG1: maltose binding protein with the TAG1 peptide appended at the C-terminus (CEIKRAAAINLKALAALAKKIL)”, the “binding to chip saturated with scFv(HyHEL-10)-CAL” value in series [5] (5 μg/ml in TBSC) is recorded as “shown to bind to the chip”. In addition, in series [5] (20 mM EGTA), the “dissociation of bound protein by EGTA” value was “could be dissociated by addition of EGTA”. Also, in series [6], the “stable complex with scFv calmodulin fusion by gel electrophoresis” value is listed as “form a stable complex”.

With “QILWFRGLNRIQTQIRVVNAFRSS-NH2 [Ca++ pump]”, the Kd in series [4] (setting [9]) is 10 nM. As for calmodulin, in series [7], the “complex formation with TAG-3 (fluorescent band)” value is recorded as “observed”. Besides, in series [8], the excretion result is given as “rapidly excreted in the urine”, the immunogenicity entry is “poorly immunogenic”, the organ accumulation result is “does not accumulate selectively in any organ” and the toxicity entry is reported as “not toxic”.

maltose binding protein [MBP]: the “binding to chip saturated with scFv(HyHEL-10)-CAL” value in series [5] was “not”. As for troponin C, the “complex formation with TAG-3 (fluorescent band)” value in series [7] is listed as “observed; also recorded: binds well”.
